Assay results: ChEMBL document CHEMBL1147369, “Novel Diterpenoids from Taxus chinensis” (J Nat Prod, 1993)

Assay: Inhibition of tubulin microtubule disassembly

| Structure (SMILES) | ID50 [µM] |
| --- | --- |
| CC(=O)O[C@H]1C(=O)[C@]2(CO)[C@H](O)C[C@H]3OC[C@@]3(OC(C)=O)[C@H]2[C@H](OC(=O)c2ccccc2)[C@]2(O)C[C@H](O)C(C)=C1C2(C)C | > 100 |
| CC(=O)O[C@@]12CO[C@@H]1C[C@@H](O)[C@@]1(C)C(=O)C(=O)C3=C(C)[C@@H](O)C[C@@](O)([C@@H](OC(=O)c4ccccc4)[C@H]21)C3(C)C | > 100 |
| C=C1[C@@H](O)C[C@H](OC(C)=O)[C@@]2(C)[C@@H](OC(C)=O)[C@H](OC(=O)c3ccccc3)C3=C(C)[C@@H](O)C[C@@]3(C(C)(C)O)[C@@H](OC(C)=O)[C@H]12 | > 100 |
| CC(=O)O[C@H]1C[C@]2(C(C)(C)O)C(=C1C)[C@@H](OC(=O)c1ccccc1)[C@H](OC(=O)c1ccccc1)[C@]1(C)[C@@H](OC(C)=O)C[C@H]3OC[C@@]3(OC(C)=O)[C@H]1[C@@H]2OC(=O)c1ccccc1 | > 100 |
| CC(=O)O[C@H]1C[C@H]2OC[C@@]2(OC(C)=O)[C@H]2[C@H](OC(C)=O)[C@]3(C(C)(C)O)C[C@H](OC(=O)/C=C/c4ccccc4)C(C)=C3[C@@H](OC(=O)c3ccccc3)[C@H](OC(C)=O)[C@]12C | > 100 |
| CC(=O)O[C@H]1C(=O)[C@@]2(C)[C@H]([C@H](OC(=O)c3ccccc3)[C@]3(O)C[C@H](OC(=O)[C@H](O)[C@@H](NC(=O)c4ccccc4)c4ccccc4)C(C)=C1C3(C)C)[C@]1(OC(C)=O)CO[C@@H]1C[C@@H]2O | 0.29 |
